Test results taken from ChEMBL document CHEMBL1142400, “An updated steroid benchmark set and its application in the discovery of novel nanomolar ligands of sex hormone-binding globulin” (J Med Chem, 2008).

target: T1, Sex hormone-binding globulin (Homo sapiens, UniProt P04278); assay: Displacement of [3H]5alpha dihydrotestosterone from human sex hormone binding globulin
T1 sequence (P04278 whole entry): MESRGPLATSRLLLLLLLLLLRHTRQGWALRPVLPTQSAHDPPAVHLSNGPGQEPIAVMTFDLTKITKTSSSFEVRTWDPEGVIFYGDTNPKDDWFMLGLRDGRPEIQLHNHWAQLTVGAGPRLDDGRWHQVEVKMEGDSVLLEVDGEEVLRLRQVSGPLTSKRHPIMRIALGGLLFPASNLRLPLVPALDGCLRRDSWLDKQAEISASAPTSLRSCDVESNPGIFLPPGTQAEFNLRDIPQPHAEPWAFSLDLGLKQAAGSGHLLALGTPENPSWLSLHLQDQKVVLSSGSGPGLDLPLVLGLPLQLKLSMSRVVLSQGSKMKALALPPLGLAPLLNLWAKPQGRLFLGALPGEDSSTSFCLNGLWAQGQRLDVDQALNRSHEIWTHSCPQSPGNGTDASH

Row | Compound | Kd [nM]
1 | Cc1c(Cc2ccccc2)c(=O)oc2c(C)c(O)ccc12 | 2190
2 | C[C@]12CCC(=O)C=C1CC[C@@H]1[C@@H]2[C@@H](O)C[C@]2(C=O)[C@@H](C(=O)CO)CC[C@@H]12 [ALDOSTERONE] | 4790
3 | C[C@]12CC[C@H]3[C@@H](CCC4=CC(=O)CC[C@@]43C)[C@@H]1CC[C@@H]2O [TESTOSTERONE] | 0.631
4 | CC(=O)[C@@]1(O)CC[C@H]2[C@@H]3CC=C4C[C@@H](O)CC[C@]4(C)[C@H]3CC[C@@]21C | 437
5 | C#C[C@]1(O)CC[C@H]2[C@@H]3CC[C@H]4CC(=O)CC[C@]4(C)[C@H]3CC[C@@]21C | 0.182
6 | C[C@@H]1C[C@H]2C[C@@H](O)CC[C@]2(C)[C@H]2CC[C@]3(C)[C@@H](O)CC[C@H]3[C@H]12 | 1
7 | CC[C@H](C1CCCCC1)[C@@H](CC)C1CCCCC1 | 2450
8 | C[C@H]1CC(=O)C[C@@H]2CC[C@H]3[C@@H]4CC[C@H](O)[C@@]4(C)CC[C@@H]3[C@]21C [MESTEROLONE] | 0.251
9 | C#C[C@]1(O)CC[C@H]2[C@@H]3CCC4=C[C@H](O)CC[C@]4(C)C3C(=C)C[C@@]21CC (some centres undefined) | 21.4
10 | CC[C@H](C1CCC(O)CC1)[C@@H](CC)C1CCC(O)CC1 (some centres undefined) | 28800
11 | C[C@@H]1CC2=CC(=O)CC[C@]2(C)[C@@]2(F)CC[C@]3(C)[C@@H](O)CC[C@H]3[C@H]12 | 3.09
12 | C[C@]12CC[C@@H](O)C[C@H]1CC[C@@H]1[C@@H]2CC[C@]2(C)C(=O)CC[C@@H]12 [ETIOCHOLANOLONE] | 708
13 | C#C[C@]1(O)CC[C@H]2[C@H]3[C@H](C(=C)C[C@@]21CC)[C@H]1CC[C@@H](O)C[C@@H]1C[C@H]3C | 5.37
14 | CCCCCCCCCc1ccc(O)cc1 [4-NONYLPHENOL] | 1200
15 | COc1cc(C(=O)OC2CC3CCC2(C)C3(C)I)ccc1O (centres undefined) | 407
16 | COc1cc2c(cc1O)CC[C@@H]1[C@@H]2CC[C@]2(C)[C@@H](O)CC[C@@H]12 [2-METHOXYESTRADIOL] | 0.832
17 | C[C@]12CCC(=O)C=C1CC[C@@H]1[C@@H]2CC[C@]2(C)C(=O)CC[C@@H]12 [ANDROSTENEDIONE] | 34.7
18 | C#C[C@]1(O)CC[C@H]2[C@@H]3CC[C@H]4CC(F)(F)CC[C@]4(C)[C@H]3CC[C@@]21C | 4.37
19 | C[C@]12CC[C@@H]3c4ccc(O)cc4CC[C@H]3[C@@H]1CCC2=O [ESTRONE] | 6.61
20 | CC(=O)[C@H]1CC[C@H]2[C@@H]3CCC4=CC(=O)CC[C@]4(C)[C@H]3CC[C@]12C [PROGESTERONE] | 115
21 | C#C[C@]1(O)CC[C@H]2[C@@H]3CC=C4C[C@@H](O)CC[C@]4(C)[C@H]3CC[C@@]21C | 1.23
22 | C[C@]12CCC(=O)C[C@@H]1[C@@H](F)C[C@@H]1[C@@H]2CC[C@]2(C)[C@@H](O)CC[C@@H]12 | 0.891
23 | C#C[C@]1(O)CC[C@H]2[C@@H]3CCC4=CC(=O)CC[C@]4(C)[C@H]3CC[C@@]21C [ETHISTERONE] | 1.66
24 | C#C[C@]1(O)CC[C@H]2[C@@H]3CCC4=CC(=O)CC[C@@H]4[C@H]3CC[C@@]21C [NORETHINDRONE] | 10.7
25 | C[C@@H]1CC2=CC(=O)CC[C@]2(C)[C@H]2CC[C@]3(C)[C@@H](O)CC[C@H]3[C@H]12 | 1.95

Row | Compound | Kd [nM]
26 | C[C@]12CCc3c(ccc4cc(O)ccc34)[C@@H]1CCC2=O [EQUILENIN] | 2.4
27 | C[C@]12CCC(=O)C[C@@H]1CC[C@@H]1[C@@H]2[C@@H](O)C[C@@]2(C)[C@H]1CC[C@@]2(O)CCCN | 11000
28 | CC(=O)[C@H]1CC[C@H]2[C@@H]3CC=C4C[C@@H](O)CC[C@]4(C)[C@H]3CC[C@]12C [PREGNENOLONE] | 70.8
29 | O=c1c(-c2ccc(O)cc2)coc2cc(O)cc(O)c12 [GENISTEIN] | 39800
30 | C[C@]12CC[C@H]3[C@@H](CC=C4C[C@@H](O)CC[C@@H]43)[C@@H]1CC[C@@H]2O | 0.288
31 | C#C[C@]1(O)CC[C@H]2[C@@H]3CC[C@H]4CC(=O)CC[C@@H]4[C@H]3C(=C)C[C@@]21CC | 1.58
32 | C[C@]12CC[C@H]3C(=CCc4cc(O)ccc43)[C@@H]1CCC2=O [EQUILIN] | 3.09
33 | C[C@]12CC[C@H]3[C@@H](CCC4=CC(=O)CC[C@@]43C)[C@@H]1CC[C@@H]2C(=O)CO [DESOXYCORTICOSTERONE] | 41.7
34 | CCc1cc(C(=O)Cc2ccccc2C)c(O)cc1O | 107
35 | C[C@@H]1CC2=CC(=O)CC[C@]2(C)[C@H]2CC[C@@]3(C)[C@@H](CC[C@]3(C)O)[C@H]12 [BOLASTERONE] | 1.74
36 | C[C@]12CC[C@@H](O)C[C@@H]1CC[C@@H]1[C@@H]2CC[C@]2(C)[C@@H](O)CC[C@@H]12 [ANDROSTANDIOL] | 0.776
37 | C#C[C@]1(O)CC[C@H]2[C@@H]3CCC4=CCCC[C@@H]4[C@H]3C(=C)C[C@@]21CC [DESOGESTREL] | 251
38 | C#C[C@]1(O)CC[C@H]2[C@@H]3[C@H](C)C=C4CC(O)CC[C@]4(C)[C@H]3CC[C@@]21C (some centres undefined) | 363
39 | C[C@]12CC[C@@H]3c4ccc(O)cc4CC[C@H]3[C@@H]1C[C@@H](O)[C@@H]2O [ESTRIOL] | 234
40 | CC1(O)CC[C@H]2[C@@H]3CC=C4CC(O)CC[C@]4(C)[C@H]3CC[C@@]21C (some centres undefined) | 4.37
41 | C[C@]12CC[C@@H]3c4ccc(OC(=O)c5ccccc5)cc4CC[C@H]3[C@@H]1CC[C@@H]2O [ESTRADIOL BENZOATE] | 1150
42 | C[C@]12CC[C@H]3C(=CCc4cc(O)ccc43)[C@@H]1CC[C@@H]2O | 2.4
43 | C#C[C@]1(O)CC[C@H]2[C@@H]3CCc4cc(O)ccc4[C@H]3CC[C@@]21C [ETHINYL ESTRADIOL] | 155
44 | C[C@@H]1CC2=CC(=O)C=C[C@]2(C)[C@H]2CC[C@@]3(C)[C@@H](CC[C@]3(C)O)[C@H]12 | 2.69
45 | C#C[C@]1(O)CC[C@H]2[C@@H]3CCC4=CC(=O)CC[C@@H]4[C@H]3C(=C)C[C@@]21CC [ETONOGESTREL] | 5.89
46 | CC1(C)CC2=C3C=C[C@@]4(C)[C@@H](CC[C@]4(C)O)[C@@H]3CCC2=CC1=O | 138
47 | C[C@@H]1C=C2CC(O)CC[C@]2(C)[C@H]2CC[C@@]3(C)[C@@H](CC[C@]3(C)O)[C@H]12 (some centres undefined) | 363
48 | C[C@]12CCC(=O)C=C1CC[C@@H]1[C@@H]2[C@@H](O)C[C@@]2(C)[C@H]1CC[C@]2(O)C(=O)CO [HYDROCORTISONE] | 631
49 | O=C1C[C@@H](c2ccc(O)cc2)Oc2cc(O)cc(O)c21 (stereo in doubt; 82) [NARINGENIN] | 28200
50 | C[C@]12CC[C@H]3[C@@H](CCC4=CC(=O)CC[C@@]43C)[C@@H]1C[C@@H](O)[C@@H]2O | 12

Row | Compound | Kd [nM]
51 | C[C@H]1C[C@H]2[C@@H]3CC[C@H](O)[C@@]3(C)CC[C@@H]2[C@@]2(C)CCC(=O)C=C12 | 4.37
52 | C[C@]12CCC(=O)C=C1CC[C@@H]1[C@@H]2CC[C@@]2(C)[C@H]1CC[C@]2(C)O [METHYLTESTOSTERONE] | 3.72
53 | C[C@]12CC[C@H]3[C@@H](CCC4CC(=O)CC[C@@H]43)[C@@H]1CC[C@@H]2O (some centres undefined) | 4.37
54 | CC1=C2CC[C@H]3[C@@H]4CC[C@H](O)[C@@]4(C)CC[C@@H]3[C@@]2(C)CCC1=O | 0.49
55 | C[C@@H]1CC2=CC(=O)CC[C@@H]2[C@H]2CC[C@@]3(C)C(=CC[C@@H]3O)[C@@H]21 | 0.851
56 | C#C[C@]1(O)CC[C@H]2[C@@H]3CCC4=Cc5oncc5C[C@]4(C)[C@H]3CC[C@@]21C [DANAZOL] | 6.31
57 | C[C@]1(O)CC[C@H]2[C@@H]3CCC4=CC(=O)CC[C@]4(C)[C@@]3(F)C(=O)C[C@@]21C | 5.89
58 | C#C[C@]1(O)CC[C@H]2[C@@H]3CCC4=C[C@@H](O)CC[C@]4(C)C3C(=C)C[C@@]21CC (some centres undefined) | 13.2
59 | C[C@@H]1CC2CC(=O)CC[C@@H]2[C@H]2CC[C@]3(C)[C@@H](O)CC[C@H]3[C@@H]21 (some centres undefined) | 3.47
60 | Oc1ccc(-c2cc3ccc(O)cc3o2)cc1 | 832
61 | C[C@]12CC[C@@H]3c4ccc(O)cc4C=C[C@H]3[C@@H]1CC[C@@H]2O | 1.74
62 | C[C@@H]1C[C@H]2CC(=O)CC[C@]2(C)[C@H]2CC[C@@]3(C)[C@@H](CC[C@]3(C)O)[C@H]12 | 0.891
63 | C[C@]12CCC(=O)C=C1CC[C@@H]1[C@@H]2CC[C@@]2(C)[C@H]1CC[C@]2(O)C(=O)CO [CORTODOXONE] | 36.3
64 | C[C@]12C[C@H](O)[C@H]3[C@@H](CCC4=CC(=O)CC[C@@]43C)[C@@H]1CC[C@@H]2C(=O)CO [CORTICOSTERONE] | 457
65 | C[C@]12CCC(=O)C=C1CC[C@@H]1[C@@H]2C(=O)C[C@@]2(C)[C@H]1CC[C@]2(O)C(=O)CO [CORTISONE] | 372
66 | COc1cc(C[C@H]2COC(=O)[C@@H]2Cc2ccc(O)c(OC)c2)ccc1O [MATAIRESINOL] | 309
67 | C[C@]12CCC3=C4CCC(=O)C=C4C=C[C@H]3[C@@H]1CC[C@@H]2O | 1150
68 | CC(C)(C)CC(C)(C)c1ccc(O)cc1 | 2140
69 | C[C@@]12CCC[C@H]1[C@@H]1CCc3cc(O)ccc3[C@H]1CC2 | 5.01
70 | C[C@]12CC[C@H](O)CC1=CC[C@@H]1[C@@H]2CC[C@]2(C)C(=O)CC[C@@H]12 [PRASTERONE] | 14.5
71 | C[C@]12CCC(=O)C[C@@H]1CC[C@@H]1[C@@H]2CC[C@]2(C)[C@@H](O)CC[C@@H]12 [STANOLONE] | 0.182
72 | Cc1c(O)ccc(C(=O)Cc2ccccc2Cl)c1O | 2190
73 | C[C@]12CC[C@H]3[C@@H](CCC4=CC(=O)CC[C@@H]43)[C@@H]1CC[C@@H]2O [NANDROLONE] | 501
74 | C[C@]12CCC(=O)C[C@@H]1CC[C@@H]1[C@@H]2CC[C@@]2(C)[C@H]1CC[C@]2(C)O [MESTANOLONE] | 1.55
